≈ marks a conversion by molar mass, not a printed value.
Key:
[1] = test system: adult-derived regenerative pluripotent transitional blastomere-like stem cells; assay: differentiation of Tr-BLSCs after exposure to dexamethasone; assay type: cell-based; details: extended exposure to a range of dexamethasone concentrations
Source text: After extended exposure to a range of dexamethasone concentrations, adult-derived regenerative pluripotent transitional blastomere-like stem cells differentiated into more than 50 discrete cell types.

[2] = solubility of dexamethasone; assay type: physicochemical
Method: Dexamethasone solution, pH 7.4: This is typically made up in absolute ethanol (EtOH) because it is not soluble in water or media. Weigh out 0.039 gm of Dexamethasone (Dex, catalog #D-1756, Sigma) and add to 10 ml of absolute EtOH. This will make a 1×10^−2 M stock solution. Store this solution at −20° C. This is the most concentrated solution of Dex that can be made with complete solubility. Add 1 ml of the stock Dex solution made above to 9-ml Opti-MEM I medium with Glutamax. Aliquot 9 ml of this solution as 500 μl quantities in 2 ml cryovials and store at −20° C. Label these tubes as […]. Take the remaining 1 ml of 10^−6M Dex and add to 9 ml of Opti-MEM I medium with Glutamax. Aliquot 9 mls and reserve 1 ml as before. Label these tubes as 1×10^−7M Dex. Take the remaining 1 ml of 10^−7M Dex and add to 9 ml of Opti-MEM I medium with Glutamax. Aliquot 9 mls and reserve 1 ml as before. Label these tubes as 1×10^−8M Dex. Take the remaining 1 ml of 10^−8M Dex and add to 9 ml of Opti-MEM I medium with Glutamax. Aliquot 9 mls and reserve 1 ml as before. Label these tubes as 1×10^−9M Dex. Take the remaining 1 ml of 10^−9M Dex and add to 9 ml of Opti-MEM I medium with Glutamax. Aliquot all 10 mls. Label these tubes as 1×10^−10M Dex. These aliquots will bring 500 mls of media to the concentration of Dex labeled on the tube. Store the cryovials at −20° C.

[3] = test system: adult pluripotent epiblast-like stem cells; assay: induction of epiblast-like stem cells in culture; assay type: cell-based, rat; details: for response to progression agents: lineage-uncommitted ELSCs
[4] = test system: adult totipotent blastomeric-like stem cells; assay: induction of blastomeric-like stem cells in culture; assay type: cell-based, rat; details: for response to progression agents: lineage-uncommitted BLSCs
Source text: 1961; Rohme 1981; Young and Black, 2005a].
FIG. 7. Blastomeric-like stem cells (BLSCs) harvested from male Sprague-Dawley out bred rat 0001 and propagated from a single cell derived by serial dilution clonogenic analysis, then genomically labeled with LacZ to synthesize the beta-galactosidase gene product. Clone designated as Scl-44beta. […] B-L is phase contrast microscopy to show unstained cells in field of view. […] Original magnification 200×.
FIG. 8. Blastomeric-like stem cells (BLSCs) harvested from male Sprague-Dawley out bred rat 0001 and propagated from a single cell derived by serial dilution clonogenic analysis, then genomically labeled with LacZ to synthesize the beta-galactosidase gene product. Clone designated as Scl-44beta.

Compound | response to progression agents [3] | response to progression agents [4] | other results
C[C@@H]1C[C@H]2[C@@H]3CCC4=CC(=O)C=C[C@]4(C)[C@@]3(F)[C@@H](O)C[C@]2(C)[C@@]1(O)C(=O)CO [dexamethasone, Dexamethasone] | – | – | discrete cell types formed [1]: more than 50 discrete cell types; solubility in water or media [2]: not soluble; solubility ([2]; absolute ethanol, organic solvent or mixture, thermodynamic from solid, absolute EtOH, read-out: most concentrated solution with complete solubility): 10 mM (≈ 3920 µg/mL)
IGF-I: progression agent | unresponsive | unresponsive | –
IGF-II: progression agent | unresponsive | unresponsive | –
hepatocyte growth factor: lineage-induction agent | – | – | response to lineage-induction agent ([3]; ELSCs): forming cells belonging to the endodermal lineage; response to lineage-induction agent ([4]; BLSCs): forming cells belonging to the endodermal lineage
insulin: progression agent | unresponsive | unresponsive | induction in the presence of insulin ([4]; clone Scl-44beta, insulin at 2 micrograms per ml, absence of inhibitors): no induction occurs
